Data published in US20220079966A1, “HYALURONAN SYNTHESIS INHIBITION FOR TREATING AUTOIMMUNE, INFLAMMATORY, FIBROTIC, OR PROLIFERATIVE DISEASES OR DISORDERS” (The Board of Trustees of the Leland Stanford Junior …, priority 2018, published 2022).

Assays:
B16F10 cells [1] = assay: 4-MU fluorescence of treated B16F10 cells by flow cytometry, pre- and post-permeabilization; format: in vitro ADME, murine
Method: Fluorescent values of 4-MUG were normalized to the 4-MU fluorescence. Referring to FIG. 2 B, 4-MU or 4-MUG was added to PBS with 10% FCS and the increase of fluorescence signal using a fluorescence plate reader was monitored at intervals up to 72 hours. […] B16F10 cells were cultured in DMEM and were treated with different concentrations of 4-MU and 4-MUG (30, 100, 300 μM) for 24 and 48 hours. Cultured cells were lysed and analyzed for HA concentration determination using an HA ELISA. HA staining in B16F10 cells placed in 96 well plates were imaged using fluorescence microscopy. To measure 4-MU florescence intensity in B16F10 cells treated with 4-MU and 4-MUG, B16F10 cells were trypsinized and 4-MU fluorescence associated with the cells was analyzed by flow cytometry in the Pacific Blue channel using a BD™ LSRII flow cytometer. For permeabilization, after trypsinization, cells were incubated in methanol at −20° C. for 20 min and washed once before flow cytometric analysis.

B16F10 cells [2] = assay: HA production and HA staining by B16F10 melanoma cells (HA ELISA, HABP staining); format: cell-based, murine; conditions: for HA production (HA synthesis inhibition) by B16F10 cells: 48 hours of drug exposure, 30, 100, 300 μM, HA ELISA; for HA staining of B16F10 cells with HA binding protein (HABP): fluorescent staining
Method: To test this, murine melanoma cells (B16F10), a cell line known to produce abundant HA, were used. […] FIGS. 4D and 4E show HA production by B16F10 cells cultured for 48 hours in 4-MU (FIG. 1D) or 4-MUG (FIG. 1E). […] Data represent mean±SEM; *, p<0.05 by unpaired t test. Similar findings were seen as well in primary lymphocytes.
B16F10 cells were cultured in DMEM and were treated with different concentrations of 4-MU and 4-MUG (30, 100, 300 μM) for 24 and 48 hours. Cultured cells were lysed and analyzed for HA concentration determination using an HA ELISA. HA staining in B16F10 cells placed in 96 well plates were imaged using fluorescence microscopy. To measure 4-MU florescence intensity in B16F10 cells treated with 4-MU and 4-MUG, B16F10 cells were trypsinized and 4-MU fluorescence associated with the cells was analyzed by flow cytometry in the Pacific Blue channel using a BD™ LSRII flow cytometer. For permeabilization, after trypsinization, cells were incubated in methanol at −20° C. for 20 min and washed once before flow cytometric analysis.
(§1) Samples were thawed and assayed for HA levels using a modified HA ELISA as previously described (Nagy N., et al., J. Clin. Invest. 2015; 125(10):3928-3940). Each sample was analyzed in triplicate with a mean value obtained per sample. For cell normalization, LI-COR CellTag™ 700 Stain was used according to the manufactures protocol.

[3] = system: Foxp3+ regulatory T-cells; assay: Splenocyte regulatory T-cell analysis in wild type mice treated i.p. for 14 days; format: in vivo; conditions: 4-MU 0.5 mg i.p. or 4-MUG 1 mg i.p. daily for 14 days; for Foxp3+ amongst CD3+/CD4+ cells in splenocytes: flow cytometry
Method: The 4-MU (Alfa Aesar) was pressed into mouse chow (TestDiet, St. Louis, Mo.) and irradiated before shipment, as previously described (Nagy N., et al., Circulation. 2010; 122(22):2313-2322). This chow formulation delivers 250 mg/mouse/day, yielding a serum drug concentration of 640.3±17.2 nmol/L in mice, as measured by HPLC-MS. 4-MUG (ChemImpex, Wood Dale, Ill.) was distributed in the drinking water at a concentration of 2 mg/ml, delivering 10 mg/mouse/day, yielding a serum drug concentration of 357.1±72.6 ng/mL in mice, as measured by LC-MS/MS. Mice were initiated on 4-MU and 4-MUG at five, eight or twelve weeks of age, unless otherwise noted, and were maintained on this diet until they were euthanized, unless otherwise noted. For analysis of Foxp3+ regulatory T-cell numbers in naïve mice, mice were treated daily with 0.5 mg of 4-MU or 1.0 mg 4-MUG in 200 μl 0.08% carboxymethylcellulose in saline by intra-peritoneal injection.
Spleens were extracted from mice and cells were harvested by homogenization through a 70 μm cell strainer. Red blood cells were lysed using ACK buffer, after which the splenocyte suspensions were stained according to the protocol described above with the following fluorochrome-conjugated antibodies. V500-CD3 (500A2), BV785-CD4 (RM4-5) and A1488-Foxp3 (FJK-16s). Flow cytometry was performed on an LSRII and data analysis was done using FlowJo (Treestar).

CHO-HAS3 cells = assay: HA production by CHO-HAS3 cells engineered to overexpress HAS3; format: cell-based; conditions: 48 hours; non-hydrolyzable 4-MUG at comparable doses to 4-MU or conventional 4-MUG
Method: as §1
To test whether 4-MUG has bioactivity independently of any possible conversion to 4-MU, a non-hydrolyzable version of 4-MUG was generated (FIG. 5A).

human cell lines = assay: HA synthesis by human cell lines (unpublished data); format: cell-based; conditions: compared with parent drug 4-MU
[4] = Chemical stability of 4-MUG in fasted state simulated gastric fluid; format: physicochemical; conditions: 100 μM, FaSSGF pH 1.6, 37° C., 0-120 minutes
Method: To determine the chemical stability of 4-MUG, its half-life (t1/2) was evaluated. 4-MUG was tested at a concentration of 100 μM. The internal standard (IS) was prepared at 50 ng/mL with tolbutamide in DMSO and a buffer solution was prepared of fasted state simulated gastric fluid (FaSSGF) at pH 1.6. The buffer was pre-warmed at 37° C. for 15 minutes, subsequently 4-MUG was added, and the solution was vortexed. Next, 30 μL of this reaction mixture was removed at each time point for analysis. The time points included 0 minutes, 15 minutes, 30 minutes, 60 minutes and 120 minutes. The reaction was stopped at the end of the experiment by adding IS solution. The samples were centrifuged at 4,000 rpm for 15 minutes at 4° C. 100 μL of the supernatant was mixed with distilled water for further liquid chromatography with tandem mass spectrometry (LC-MS/MS) analysis. The mass spectrometry detection was performed using a SCIEX® API 4500 Qtrap® (Sciex, Redwood City, Calif.). Each compound was analyzed by reverse phase high performance liquid chromatography (HPLC). The parameters calculated were the ratio of 4-MUG, the percent of 4-MUG remaining versus time, and the estimation of 4-MUG's t1/2.

[5] = Conversion of 4-MUG into fluorescent 4-MU in medium (fluorescence plate reader); format: in vitro ADME; conditions: PBS with 10% FCS, monitored up to 72 hours
Method: Given the established activity of 4-MU leading to inhibition of HA synthesis, it seemed possible that the bioactivity of 4-MUG could be attributed to its hydrolysis into 4-MU. It is generally known that 4-MU is fluorescent while 4-MUG is not. In particular, 4-MU has an excitation wavelength of 380 nm and an emission wavelength of 454 nm in water.
Fluorescent values of 4-MUG were normalized to the 4-MU fluorescence. Referring to FIG. 2 B, 4-MU or 4-MUG was added to PBS with 10% FCS and the increase of fluorescence signal using a fluorescence plate reader was monitored at intervals up to 72 hours.

Row | SMILES | fluorescence of treated B16F10 cells upon permeabilization (B16F10 cells [1]) | HA production (HA synthesis inhibition) by B16F10 cells (B16F10 cells [2]) | HA staining of B16F10 cells with HA binding protein (HABP) (B16F10 cells [2]) | CD4+ and CD3+ T-cell numbers in splenocytes [3] | Foxp3+ MFI amongst CD3+/CD4+ cells in splenocytes [3] | Foxp3+ amongst CD3+/CD4+ cells in splenocytes [3] | HA production by CHO-HAS3 cells (CHO-HAS3 cells) | inhibition of HA synthesis by human cell lines (human cell lines) | time after which treated B16F10 cells became fluorescent (B16F10 cells [1]; incubated 24, 48 or 72 hours, flow cytometry) | chemical stability [4] | time from which fluorescence (conversion to 4-MU) could be detected [5]
1 | Cc1cc(=O)oc2cc(O)ccc12 [4-MU, 4-methylumbelliferone] | lost upon permeabilization | concentration dependent inhibition of HA synthesis | reduced HA | not affected | increase in their expression of Foxp3 | increase of Foxp3+ regulatory T-cells |  |  |  |  | 
2 | Cc1cc(=O)oc2cc(O[C@@H]3O[C@H](C(=O)O)[C@@H](O)[C@H](O)[C@H]3O)ccc12 [4-MUG, 4-methylumbelliferone-glucuronide] |  | concentration dependent inhibition of HA synthesis | reduced HA | not affected | increase in their expression of Foxp3 | increase of Foxp3+ regulatory T-cells | directly inhibits HA synthesis | just as well as the parent drug | 48 to 72 h | stable | around 30 hours
